# Columns and labels:
# Klebsiella pneumoniae [1] = assay: Antibacterial activity against Klebsiella pneumoniae KP63 assessed as inhibition of bacterial growth incubated for 18 to 24 hrs by microdilution method; assay type: functional; conditions: time 18-24 hrs
# Klebsiella pneumoniae [2] = assay: Antibacterial activity against Klebsiella pneumoniae KP63 assessed as inhibition of bacterial growth incubated for 18 to 24 hrs in presence of PAbetaN by microdilution method; assay type: functional; conditions: time 18-24 hrs
# Pseudomonas aeruginosa [3] = assay: Antibacterial activity against Pseudomonas aeruginosa PA01 assessed as inhibition of bacterial growth incubated for 18 to 24 hrs in the presence of PAbetaN by microdilution method; assay type: functional; conditions: time 18-24 hrs
# CCRF-CEM [4] = assay: Cytotoxicity against drug sensitive human CCRF-CEM cells assessed as inhibition of cell growth incubated for 72 hrs by resazurin dye based assay; assay type: functional
# Klebsiella pneumoniae [5] = assay: Antibacterial activity against Klebsiella pneumoniae ATCC 11296 assessed as inhibition of bacterial growth incubated for 18 to 24 hrs by microdilution method; assay type: functional; conditions: time 18-24 hrs
# ADR5000 cell line = assay: Cytotoxicity against multidrug resistant human CEM/ADR5000 cells overexpressing p-glycoprotein assessed as inhibition of cell growth incubated for 72 hrs by resazurin dye based assay; assay type: functional; conditions: ADR5000, 72 h
# Escherichia coli [6] = assay: Antibacterial activity against Escherichia coli AG102 assessed as inhibition of bacterial growth incubated for 18 to 24 hrs in the presence of PAbetaN by microdilution method; assay type: functional; conditions: time 18-24 hrs
# Providencia stuartii [7] = assay: Antibacterial activity against Providencia stuartii PS2636 assessed as inhibition of bacterial growth incubated for 18 to 24 hrs in the presence of PAbetaN by microdilution method; assay type: functional; conditions: time 18-24 hrs
# Providencia stuartii [8] = assay: Antibacterial activity against Providencia stuartii NEA16 assessed as inhibition of bacterial growth incubated for 18 to 24 hrs in the presence of PAbN by microdilution method; assay type: functional; conditions: time 18-24 hrs
# Escherichia coli [9] = assay: Antibacterial activity against Escherichia coli AG102 assessed as inhibition of bacterial growth incubated for 18 to 24 hrs by microdilution method; assay type: functional; conditions: time 18-24 hrs
# Staphylococcus aureus [10] = assay: Antibacterial activity against methicillin-resistant Staphylococcus aureus 6 assessed as inhibition of bacterial growth incubated for 18 to 24 hrs by microdilution method; assay type: functional; conditions: time 18-24 hrs
# Escherichia coli [11] = assay: Antibacterial activity against Escherichia coli ATCC 10536 assessed as inhibition of bacterial growth incubated for 18 to 24 hrs by microdilution method; assay type: functional; conditions: time 18-24 hrs
# Klebsiella pneumoniae [12] = assay: Antibacterial activity against Klebsiella pneumoniae ATCC 11296 assessed as inhibition of bacterial growth incubated for 18 to 24 hrs in presence of PAbetaN by microdilution method; assay type: functional; conditions: time 18-24 hrs
# Pseudomonas aeruginosa [13] = assay: Antibacterial activity against Pseudomonas aeruginosa PA01 assessed as inhibition of bacterial growth incubated for 18 to 24 hrs by microdilution method; assay type: functional; conditions: time 18-24 hrs
# Pseudomonas aeruginosa [14] = assay: Antibacterial activity against Pseudomonas aeruginosa PA124 assessed as inhibition of bacterial growth incubated for 18 to 24 hrs by microdilution method; assay type: functional; conditions: time 18-24 hrs
# Providencia stuartii [15] = assay: Antibacterial activity against Providencia stuartii NEA16 assessed as inhibition of bacterial growth incubated for 18 to 24 hrs by microdilution method; assay type: functional; conditions: time 18-24 hrs
# Pseudomonas aeruginosa [16] = assay: Antibacterial activity against Pseudomonas aeruginosa PA124 assessed as inhibition of bacterial growth incubated for 18 to 24 hrs in the presence of PAbetaN by microdilution method; assay type: functional; conditions: time 18-24 hrs
# Staphylococcus aureus [17] = assay: Antibacterial activity against methicillin-resistant Staphylococcus aureus 6 assessed as inhibition of bacterial growth incubated for 18 to 24 hrs in the presence of PAbetaN by microdilution method; assay type: functional; conditions: time 18-24 hrs
# Staphylococcus aureus [18] = assay: Antibacterial activity against methicillin-resistant Staphylococcus aureus 4 assessed as inhibition of bacterial growth incubated for 18 to 24 hrs in the presence of PAbetaN by microdilution method; assay type: functional; conditions: time 18-24 hrs
# Escherichia coli [19] = assay: Antibacterial activity against Escherichia coli ATCC 10536 assessed as inhibition of bacterial growth incubated for 18 to 24 hrs in the presence of PAbetaN by microdilution method; assay type: functional; conditions: time 18-24 hrs
# Staphylococcus aureus [20] = assay: Antibacterial activity against methicillin-resistant Staphylococcus aureus 4 assessed as inhibition of bacterial growth incubated for 18 to 24 hrs by microdilution method; assay type: functional; conditions: time 18-24 hrs
# Providencia stuartii [21] = assay: Antibacterial activity against Providencia stuartii PS2636 assessed as inhibition of bacterial growth incubated for 18 to 24 hrs by microdilution method; assay type: functional; conditions: time 18-24 hrs
# CCRF-CEM [22] = assay: Cytotoxicity against drug sensitive human CCRF-CEM cells assessed as inhibition of cell growth at 10 uM incubated for 72 hrs by resazurin dye based assay relative to control; assay type: functional
# Providencia stuartii [23] = assay: Antibacterial activity against Providencia stuartii ATCC29916 assessed as inhibition of bacterial growth incubated for 24 hrs by broth microdilution method; assay type: functional
# HL-60 = assay: Antiproliferative activity against human HL-60 cells assessed as inhibition of cell growth by MTT assay; assay type: functional, cell-based
# A549 = assay: Antiproliferative activity against human A549 cells assessed as inhibition of cell growth by MTT assay; assay type: functional, cell-based
# SMMC-7721 = assay: Antiproliferative activity against human SMMC-7721 cells assessed as inhibition of cell growth by MTT assay; assay type: functional, cell-based
# MCF7 = assay: Antiproliferative activity against human MCF7 cells assessed as inhibition of cell growth by MTT assay; assay type: functional, cell-based
# RAW264.7 = assay: Antiinflammatory activity in mouse RAW264.7 cells assessed as inhibition of LPS-induced NO production; assay type: functional, cell-based
# SW480 = assay: Antiproliferative activity against human SW480 cells assessed as inhibition of cell growth by MTT assay; assay type: functional, cell-based
# [24] = Resistance index, ratio of IC50 for multidrug resistant human CEM/ADR5000 cells overexpressing p-glycoprotein to IC50 for drug sensitive human CCRF-CEM cells; assay type: functional
# [25] = system: Meyerozyma guilliermondii; assay: Antimicrobial activity against clinical isolate Candida guilliermondii assessed as inhibition of microbial growth incubated for 48 hrs by broth microdilution method; assay type: functional
# Candida albicans = assay: Antimicrobial activity against Candida albicans ATCC 2091 assessed as inhibition of microbial growth incubated for 48 hrs by broth microdilution method; assay type: functional
# Staphylococcus aureus [26] = assay: Antibacterial activity against Staphylococcus aureus […] assessed as inhibition of bacterial growth incubated for 24 hrs by broth microdilution method; assay type: functional
# Nannizzia gypsea = assay: Antimicrobial activity against Microsporum gypseum E1420 assessed as inhibition of microbial growth incubated for 5 days by broth microdilution method; assay type: functional; conditions: E1420, 120 h, time 5 day
# Enterococcus faecalis = assay: Antibacterial activity against Enterococcus faecalis ATCC10541 assessed as inhibition of bacterial growth incubated for 24 hrs by broth microdilution method; assay type: functional
Compound,MIC (Klebsiella pneumoniae [1]),MIC (Klebsiella pneumoniae [2]),MIC (Pseudomonas aeruginosa [3]),MIC (Klebsiella pneumoniae [5]),MIC (Escherichia coli [6]),MIC (Providencia stuartii [7]),MIC (Providencia stuartii [8]),MIC (Escherichia coli [9]),MIC (Staphylococcus aureus [10]),MIC (Escherichia coli [11]),MIC (Klebsiella pneumoniae [12]),MIC (Pseudomonas aeruginosa [13]),MIC (Pseudomonas aeruginosa [14]),MIC (Providencia stuartii [15]),MIC (Pseudomonas aeruginosa [16]),MIC (Staphylococcus aureus [17]),MIC (Staphylococcus aureus [18]),MIC (Escherichia coli [19]),MIC (Staphylococcus aureus [20]),MIC (Providencia stuartii [21]),further results
COc1cc2occ(-c3ccc(C#N)cc3)c(=O)c2c(OC)c1CC=C(C)C,> 130 µg/mL,1 µg/mL,32 µg/mL,130 µg/mL,130 µg/mL,8 µg/mL,1 µg/mL,130 µg/mL,130 µg/mL,32 µg/mL,4 µg/mL,130 µg/mL,> 130 µg/mL,16 µg/mL,32 µg/mL,16 µg/mL,4 µg/mL,2 µg/mL,64 µg/mL,130 µg/mL,IC50 (CCRF-CEM [4]): 20 µM; IC50 (ADR5000 cell line): 20 µM
COc1cc2occ(-c3ccc4c(c3)OCO4)c(=O)c2c(OC)c1CC=C(C)C,16 µg/mL,1 µg/mL,16 µg/mL,130 µg/mL,32 µg/mL,32 µg/mL,8 µg/mL,130 µg/mL,32 µg/mL,130 µg/mL,1 µg/mL,64 µg/mL,130 µg/mL,130 µg/mL,4 µg/mL,2 µg/mL,32 µg/mL,64 µg/mL,130 µg/mL,130 µg/mL,inhibition at 10 µM (CCRF-CEM [22]): < 50%
COc1c(CC=C(C)C)c(O)cc2occ(-c3ccc4c(c3)OCO4)c(=O)c12,,,,,,,,,,,,,,,,,,,,,MIC (Providencia stuartii [23]): 25 µg/mL
COc1ccc(-c2coc3cc(OC)c(CC=C(C)C)c(OC)c3c2=O)cc1,> 130 µg/mL,1 µg/mL,64 µg/mL,130 µg/mL,2 µg/mL,4 µg/mL,4 µg/mL,32 µg/mL,32 µg/mL,32 µg/mL,2 µg/mL,> 130 µg/mL,64 µg/mL,130 µg/mL,8 µg/mL,2 µg/mL,8 µg/mL,2 µg/mL,64 µg/mL,130 µg/mL,IC50 (HL-60): 0.63 µM; IC50 (A549): 0.63 µM; IC50 (SMMC-7721): 0.63 µM; IC50 (MCF7): 0.63 µM; inhibition at 10 µM (CCRF-CEM [22]): < 50%; IC50 (RAW264.7): 2.06 µM; IC50 (SW480): 0.63 µM
CC(=O)O[C@H]1C(=O)[C@@]2(C)[C@H]([C@H](OC(=O)c3ccccc3)[C@]3(O)C[C@H](OC(=O)[C@H](O)[C@@H](NC(=O)c4ccccc4)c4ccccc4)C(C)=C1C3(C)C)[C@]1(OC(C)=O)CO[C@@H]1C[C@@H]2O [PACLITAXEL],,,,,,,,,,,,,,,,,,,,,Ratio IC50 [24]: 390
COc1cc2occ(-c3ccc(O)cc3)c(=O)c2c(OC)c1CC=C(C)C,16 µg/mL,1 µg/mL,130 µg/mL,130 µg/mL,4 µg/mL,4 µg/mL,1 µg/mL,16 µg/mL,32 µg/mL,130 µg/mL,2 µg/mL,130 µg/mL,32 µg/mL,8 µg/mL,4 µg/mL,32 µg/mL,32 µg/mL,2 µg/mL,64 µg/mL,130 µg/mL,MIC [25]: 12.5 µg/mL; MIC (Candida albicans): 12.5 µg/mL; MIC (Providencia stuartii [23]): ≥ 100 µg/mL; MIC (Staphylococcus aureus [26]): ≥ 100 µg/mL; MIC (Nannizzia gypsea): 12.5 µg/mL; inhibition at 10 µM (CCRF-CEM [22]): < 50%; MIC (Enterococcus faecalis): ≥ 100 µg/mL
COc1cc2occ(-c3ccc4[nH]ccc4c3)c(=O)c2c(OC)c1CC=C(C)C,> 130 µg/mL,1 µg/mL,8 µg/mL,130 µg/mL,64 µg/mL,4 µg/mL,8 µg/mL,130 µg/mL,32 µg/mL,130 µg/mL,4 µg/mL,130 µg/mL,> 130 µg/mL,130 µg/mL,2 µg/mL,1 µg/mL,4 µg/mL,130 µg/mL,> 130 µg/mL,64 µg/mL,inhibition at 10 µM (CCRF-CEM [22]): < 50%
COc1cc2occ(-c3ccc(C=O)cc3)c(=O)c2c(OC)c1CC=C(C)C,130 µg/mL,2 µg/mL,16 µg/mL,> 130 µg/mL,8 µg/mL,16 µg/mL,2 µg/mL,130 µg/mL,130 µg/mL,32 µg/mL,8 µg/mL,64 µg/mL,130 µg/mL,64 µg/mL,8 µg/mL,64 µg/mL,8 µg/mL,8 µg/mL,130 µg/mL,130 µg/mL,IC50 (CCRF-CEM [4]): 20 µM; IC50 (ADR5000 cell line): 20 µM
O=C(O)c1cn(C2CC2)c2cc(N3CCNCC3)c(F)cc2c1=O [CIPROFLOXACIN],,,,1 µg/mL,,0.5 µg/mL,0.25 µg/mL,,4 µg/mL,,,,4 µg/mL,2 µg/mL,1 µg/mL,1 µg/mL,1 µg/mL,,8 µg/mL,4 µg/mL,

# Source: ChEMBL document CHEMBL5321245, “Synthesis and Bioactivity of Isoflavones from Ficus carica and Some Non-Natural Analogues” (J Nat Prod, 2023)
